Measured values published in US6140368A, “Naphthols useful in antiviral methods” (The Regents of the University of California, priority 1998, dated 2000).
Values joined by “and” are separate entries in the source; they are usually repeats but may differ in a detail not shown here. Equal values may be shown once. Where a name gives a salt, the structure may show the parent alone. Read-outs that look alike come from different tables or passages of the source.

Legend:
HIV integrase [1] = molecular target: T1, HIV integrase (Human immunodeficiency virus type 1 group M subtype B, UniProt P04585); test: biochemical; conditions: read-out: Inhibition of strand transfer (IC50)
[2] = molecular target: T2, K103N mutant reverse transcriptase (Human immunodeficiency virus type 1 BH10, UniProt P03366, K702N); test: biochemical
T2 construct: mature RT cut from Gag-Pol polyprotein

[3] = molecular target: T3, V106A mutant reverse transcriptase (Human immunodeficiency virus type 1 BH10, UniProt P03366, V705A); test: biochemical; assay type: biochemical
T3 construct: mature chain of Gag-Pol polyprotein

[4] = molecular target: T4, Y181I mutant reverse transcriptase (Human immunodeficiency virus type 1 BH10, UniProt P03366, Y780I); test: biochemical
T4 construct: mature chain of Gag-Pol polyprotein

[5] = molecular target: T5, E138K mutant reverse transcriptase (Human immunodeficiency virus type 1 BH10, UniProt P03366, E737K); test: biochemical
T5 construct: mature RT cut from Gag-Pol polyprotein

[6] = molecular target: T6, L100I mutant reverse transcriptase (Human immunodeficiency virus type 1 BH10, UniProt P03366, L699I); test: biochemical
T6 construct: mature RT cut from Gag-Pol polyprotein

[7] = molecular target: L74V mutant reverse transcriptase (Human immunodeficiency virus type 1 BH10, UniProt P03366, L673V); test: Reverse transcriptase mutant assay, L74V; assay type: biochemical, HIV-1
WT reverse transcriptase = molecular target: T7, WT reverse transcriptase (Human immunodeficiency virus type 1 BH10, UniProt P03366); test: Reverse transcriptase mutant assay, WT; assay type: biochemical, HIV-1
T7 construct: mature chain of Gag-Pol polyprotein
Procedure: (§1) The mutants were constructed using BspMI cassette mutagenesis as described previously by Boyer et al. (J Virol., 66:1031-1039 and 7533-7537 (1992)), which is hereby incorporated by reference. The RT assay has also been previously described by Boyer et al. (PNAS USA, 91:4882-4886 (1994)), which is also incorporated by reference. Briefly, RNA dependent DNA polymerase activity is assayed using purified RT protein and a poly(rC).olio(dG) template-primer as the substrate. The protein (1 μg) and substrate are assayed in a total reaction volume of 100 μl containing 0.01 unites poly(rC).olio(dG), 0.02 mM dGTP, 0.002 mCi [α-^32 P]dGTP, and a buffer containing 25 mM tris (pH 8.0), 75 mM KCL, 8.0 mM MgCl2, 2.0 mM dithiothreitol, and 10 mM 3-[(3-cholamidopropyl) diethylammoniol]-1-propane-sulfonate containing acetylated bovine serum albumin at 100 μg/ml. The assay mixture is incubated for 30 minutes, and then stopped by the addition of 50 μl of a 10 mg/ml solution of sheared and denatured salmon sperm DNA followed by 3.0 ml 10 percent trichloroacetic acid. The labeled polymer is collected by suction filtration on Whatman glass GF/C and counted.

[8] = molecular target: HIV reverse transcriptase (Human immunodeficiency virus type 1 group M subtype B, UniProt P03366); test: Reverse transcriptase scintillation proximity assay (Example 4, Table 2); assay type: biochemical; conditions: for IC50: read-out: IC50 (RT activity)
Summary of the method: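 Purified RT with biotinylated 17mer/50mer RNA-DNA template-primer (39 nm), pH 8.0 Tris with 10 mM MgCl2, 60 mM KCl, dNTPs plus tritiated dTTP; inhibitor preincubated 10 min at 37 °C before enzyme, reaction 3 min. Incorporation read by streptavidin SPA counting.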

[9] = system: mutant strains of HIV reverse transcriptase; test: Reverse transcriptase mutant assays, mutants overall; assay type: biochemical
Procedure: as §1

[10] = molecular target: AZT-21 (M41L/D67N/K70R/T215Y/K219Q) mutant reverse transcriptase (Human immunodeficiency virus type 1 BH10, UniProt P03366, D666N/K669R/K818Q/M640L/T814Y); test: Reverse transcriptase mutant assay, AZT-21; assay type: biochemical, HIV-1; conditions: for % Activity Remaining: AZT-21 {M41L/D67N/K70R/T215Y/K219Q}
HIV integrase [11] = molecular target: T1, HIV integrase; test: biochemical; conditions: read-out: Inhibition of 3' processing activity (IC50)
HIV [12] = test: Cell-based anti-HIV (XTT) assay (National Institutes of Health); conditions: run by the National Institutes of Health
From the text: The anti-viral evaluations branch of the National Institutes of Health also ran cell-based anti-HIV (XTT) assays and reverse transcriptase (RT) assays on a number of the novel compounds. […] These were: 31, 32, 35, 36, 53, 54, 57, 58, 91, 99, and 103.

293T cells = test: Toxicity to 293T cells by growth curves and trypan blue exclusion; conditions: concentrations greater than ten times IC50 against HIV RT
HIV [13] = conditions: cited from earlier work

`O=C(Nc1ccc2c(O)cc(S(=O)(=O)O)cc2c1)Nc1ccc2c(O)cc(S(=O)(=O)O)cc2c1` [Compound 1, carbonyl-J] showed an IC50 (HIV integrase [1]) of 2500 nM, a remaining activity at 10 µM ([2]; 10 μM) of 32% and a remaining activity at 50 µM ([2]; 50 μM) of 3%. For the same molecule, the “% Activity Remaining” value ([3]; 10 μM) was 33%, the remaining activity at 50 µM ([3]; 50 μM) was 4% and the remaining activity at 10 µM ([4]; 10 μM) was 18%. It also gave a remaining activity at 50 µM ([4]; 50 μM) of 1%, a remaining activity at 10 µM ([5]; 10 μM) of 29% and a remaining activity at 50 µM ([5]; 50 μM) of 4%. The remaining activity at 10 µM ([6]; 10 μM) was 11%, the remaining activity at 50 µM ([6]; 50 μM) was 1% and the “% Activity Remaining” value ([7]; 10 μM) was 34%. For the same molecule, the “% Activity Remaining” value ([7]; 50 μM) was 6%, the remaining activity at 10 µM (WT reverse transcriptase; 10 μM) was 29% and the remaining activity at 50 µM (WT reverse transcriptase; 50 μM) was 3%. The IC50 [8] was ~5000 nM and 5000 nM, the “activity against mutant reverse transcriptases” value [9] was “displays activity against non-nucleoside mutants as well as other mutants” and the “% Activity Remaining” value ([10]; 10 μM) was 33%. For the same molecule, the “% Activity Remaining” value ([10]; 50 μM) was 4%, the “difference in inhibition with respect to the wild type enzyme” value ([10]; mutant M41L/D67N/K70R/T215Y/K219Q) was “virtually no difference in inhibition was found with respect to the wild type enzyme” and the IC50 (HIV integrase [11]) was 2500 nM.

In the case of `O=C(O)/C=C/c1ccc(N=Nc2c(S(=O)(=O)O)cc3cc(NC(=O)Nc4ccc5c(O)c(N=Nc6ccc(/C=C/C(=O)O)cc6)c(S(=O)(=O)O)cc5c4)ccc3c2O)cc1` [Compound 5], the “conclusion of cell-based anti-HIV (XTT) assays and reverse transcriptase (RT) assays” value (from here on “conclusion of cell-based anti-HIV”) (HIV [12]) is reported as “confirmed active”, the IC50 (HIV integrase [1]) is reported as 1000 nM and the toxicity to cells (293T cells) is reported as “not toxic even at concentrations greater than ten times its IC50”. It also gave an IC50 [8] of 200 nM and an IC50 (HIV integrase [11]) of 900 nM.

For `O=C(O)CCC(NC(=O)c1ccc(N=Nc2c(S(=O)(=O)O)cc3cc(NC(=O)Nc4ccc5c(O)c(N=Nc6ccc(C(=O)NC(CCC(=O)O)C(=O)O)cc6)c(S(=O)(=O)O)cc5c4)ccc3c2O)cc1)C(=O)O` (stereo not shown) [Compound 57], the “conclusion of cell-based anti-HIV” value (HIV [12]) was “active or moderately active”, the IC50 (HIV integrase [1]) was 900 nM and the remaining activity at 10 µM ([8]; 0.05 h, 10 μM inhibitor, relative to dimethyl sulfoxide = 100%, read-out: % RT activity remaining at 10 μM) was 0.6%. The IC50 (HIV integrase [11]) was 600 nM.

With `O=C(Nc1ccc2c(O)c(N=Nc3cccc(C(=O)O)c3)c(S(=O)(=O)O)cc2c1)Nc1ccc2c(O)c(N=Nc3cccc(C(=O)O)c3)c(S(=O)(=O)O)cc2c1` [Compound 58] the “conclusion of cell-based anti-HIV” value (HIV [12]) was “active or moderately active”, the IC50 (HIV integrase [1]) was 600 nM and the IC50 [8] was 800 nM. It also gave an IC50 (HIV integrase [11]) of 200 nM.

For `Cc1ccccc1N=Nc1c(S(=O)(=O)[O-])cc2cc(NC(=O)Nc3ccc4c(O)c(N=Nc5ccc6cc(S(=O)(=O)[O-])ccc6c5)c(S(=O)(=O)[O-])cc4c3)ccc2c1O.[Na+].[Na+].[Na+]` [brilliant paper scarlet G], the “activity in AIDS antiviral screens” value (HIV [13]) is listed as “confirmed active”.

In the case of `CCOc1cc(N=Nc2cc(Cl)c(S(=O)(=O)O)cc2Cl)c2cc(S(=O)(=O)O)ccc2c1N=Nc1c(S(=O)(=O)O)cc2cc(NC(=O)c3ccc(N)cc3)ccc2c1O` [calcomine scarlet 4BNC, 2-naphthalenesulfonic acid, 7-[(4-aminobenzoyyl)amino]-3-[[4-[(2,5-dichloro-4-sulfophenyl)azo]-2-ethoxy-6-sulfo-1-naphthalenyl]azo]-4-hydroxy-,trisodium salt (9CI)], the “activity in AIDS antiviral screens” value (HIV [13]) is given as “confirmed active”.

In the case of `COc1ccccc1N=Nc1c(S(=O)(=O)[O-])cc2cc(NC(=O)Nc3ccc4c(O)c(N=Nc5ccc(S(=O)(=O)[O-])cc5C)c(S(=O)(=O)[O-])cc4c3)ccc2c1O.[Na+].[Na+].[Na+]` [direct fast scarlet 4BSW], the “activity in AIDS antiviral screens” value (HIV [13]) is listed as “confirmed active”.
